Reference: patent US10716797B2, “Steroid alkaloids and compositions and kits thereof” (priority 2013, dated 2020)
Entries after “also recorded” stand apart in the source; their conditions may differ.

Tests used:
[1] = test system: MRSA USA100; assay: MIC by microdilution, alone or in combination, MRSA USA100; format: cell-based, Staphylococcus aureus; conditions: agent used alone
Method: (§1) Method. The minimal inhibitory concentrations (MICs), (i.e. lowest concentration of an antimicrobial that will inhibit the visible growth of a microorganism after incubation), of test compounds were determined against the normal or SCV strains of bacterial species from the Firmicutes phylum. Briefly, MICs were determined using the microdilution method in 96-well plates (Clinical and Laboratory Standards Institute (CLSI), 2011). Bacteria were inoculated at ˜10^5-10^6 CFU/mL and incubated at 35° C. for 20 h (normal strains) or 48 h (SCVs) in brain heart infusion (BHI) broth in order to allow SCVs to reach maximal growth as previously described (Mitchell et al., 2012). Then OD595 nm was read on a microplate reader. […] In this example the range of compound concentrations tested was 0.03 to 64 μg/ml using doubling increments. Strain Staphylococcus aureus NewbouldΔhemB (hemB) was also used in the experiments and is a laboratory-derived stable SCV created by the insertion of the macrolide resistance gene ermA in the hemB gene of this strain to create the SCV phenotype (defective electron transport chain and respiratory deficiency) through inactivation of hemin biosynthesis (Brouillette et al., 2004).
(§2) In the present Example the range of compound concentrations tested, using doubling increments, was 0.03 to 64 μg/ml for Compound 14 and up to 1024 μg/ml for gentamicin (GEN), kanamycin (KAN) and cefalexin (CEF) when these compounds were used alone. Compound 14 (Cpd 14) was used at a fixed concentration of 4 μg/ml when added to other antibiotics. The combination of CEF and KAN was used in a 3:2 ratio and doubling increments were used to test the antibacterial activity against MRSA in the absence or presence of Compound 14.

[2] = test system: S. aureus SCV strain NewbouldΔhemB; assay: MIC by microdilution against SCV strain; format: cell-based, Staphylococcus aureus
Method: as §1, with “2004). […]” for “2004).”

[3] = test system: MRSA USA300; assay: MIC by microdilution, alone or in combination, MRSA USA300; format: cell-based, Staphylococcus aureus; conditions: agent used alone
Method: as §1, §2

[4] = test system: MRSA COL; assay: MIC by microdilution, alone or in combination, MRSA COL; format: cell-based, Staphylococcus aureus; conditions: agent used alone
Method: as §1, §2

[5] = test system: S. aureus SCV strain CF07-S in polarized Calu-3 epithelial cells; assay: Intracellular replication of SCV in Calu-3 cell infection assay; format: cell-based, Staphylococcus aureus; conditions: 2 and 4 μg/ml; 48 h post-internalization; vs DMSO-treated cells; hydrochloride
Method: Human airway epithelial cells, the Calu-3 cell line ATCC HTB 55, were used in this cell culture assay. Cells were cultured in Eagle's Minimum Essential Medium (EMEM) supplemented with 0.1 mM MEM nonessential amino acids, 1 mM of sodium pyruvate, 100 U/ml penicillin, 0.1 mg/ml streptomycin, 2.5 μg/ml of Fungizone and 10% fetal bovine serum (FBS) at 37° C. in 5% CO2. For routine culture, 4 μg/ml of puromycin was added to culture media. All cell culture reagents were purchased from Wisent (St-Bruno, QC, Canada). Cell infection assays were performed as previously described (Mitchell et al., 2011). Cells were seeded at 2.5×10^5 cells/inserts on 12-well Transwell™ plates and cultured for 9 to 10 days in an air:liquid system. The complete medium in the basal compartment was replaced by the invasion medium (1% FBS and no antibiotics) 18 h before assays. Inocula were prepared by suspending bacteria grown 20 h on BHIA plates in ice-cold PBS. Bacteria (the S. aureus SCV strain CF07-S; Mitchell et al., 2011) were then washed three times in ice-cold PBS and suspended in the invasion medium supplemented with 0.5% BSA at a density of approximately 4×10^8 CFU/ml. […] Fresh invasion medium supplemented with lysostaphin was also added 1 h before cell lysis to ensure that only intracellular bacteria were counted. […]

[6] = test system: Listeria monocytogenes (strain ATCC 13932); assay: Time-kill experiments, Listeria monocytogenes; format: cell-based
Method: Time-kill experiments were performed in order to determine whether the effect of test compounds or the combination with an aminoglycoside on Listeria monocytogenes (strain ATCC 13932) is bacteriostatic (prevents growth) or bactericidal (kills cells).
At several time points during growth at 35° C. (225 RPM), bacteria were sampled, serially diluted and plated on Brain Hearth Infusion agar (BHIA) for colony-forming unit (CFU) determinations (i.e., viable bacterial counts). Plates were incubated for 24 h at 35° C. It represents the results of three independent experiments.

[7] = compound tested alone, strain NewbouldΔhemB

## 3-(N-aminoethyl)-aminotomatidine hydrochloride [Compound 14]
[1]
  MIC: 16 µg/mL
[2]; S. aureus hemB (SCV strain NewbouldΔhemB)
  MIC: 0.5 µg/mL
[2]; [7]
  Activity of the compounds against the SCV strain (class): Moderate (MIC = 0.5-4 μg/mL: moderate activity)
  MIC vs SCV: 0.5 to 1 µg/mL
[3]
  MIC: 16 µg/mL
[4]
  MIC: 16 µg/mL
[5]
  intracellular SCVs in Calu-3 cells (CFU): can significantly decrease the infection; also recorded: significantly less SCVs
[6]; 8 μg/ml with 2 μg/ml gentamicin
  effect in time-kill in combination with gentamicin: important bactericidal synergy
[6]; used alone at 8 μg/ml
  effect on growth in time-kill (CFU): reduces the growth
